# According to PMC4104761, “Identification of a novel lytic peptide for the treatment of solid tumours” (Genes & Cancer, 2014):
# Experiments:
# [1] = tested on: normal human cell lines; test: MTT viability assay, average of normal human cell lines; type: cell-based; details: 20 µg Cypep-1/ml, 60 min exposure
# Procedure: Cypep-1 was tested in various concentrations on a total of 17 cell lines, which included 13 human and 1 murine tumour cell line(s), as well as 3 normal human cell lines. Listed in detail: 4 human osteosarcoma (U2OS, SaOS2, HOS and MNNG-HOS), 6 human glioblastoma (A172, GaMg, LN18, U87, U373 and T98G) and 3 human mammary carcinoma cell lines (MCF7, AU565 and MDA-MB-468) as well as an additional murine mammary carcinoma cell line (4T1). Furthermore, 3 normal human cell lines were included: 2 normal human fibroblast cell lines (HFF1 and 142Br) as well as normal human osteoblasts (HOB).
# MTT proliferation assays were performed on all cell lines (with the exception of 142Br (human skin fibroblasts)), using monolayers of 15 000 cells in sterile 96 well tissue culture plates (Nunc™, Roskilde, Denmark), respectively. All cells were incubated with Cypep-1 dissolved in 0.9% NaCl, at the following concentrations: 0.1, 0.5, 1.0, 5, 10, 15, 20, 25, 30 and 35µg of Cypep-1 per ml and assayed after 15, 30, 45, 60, 75, 90, 180, 270 and 360 min.
# [2] = Biodistribution of 125I-Cypep-1 after i.v. injection; type: in vivo, Wistar rat; details: rat
# Procedure: The radio labelling of Cypep-1 was performed with ^125I, according to the Iodo-Gen method as described by Fraker et al.. The obtained ^125I-Cypep-1 stock solution was stored in the dark at 4°C for 48 hours prior to validation by reversed phase chromatography, using a 4.6 × 50 mm Dionex Proswift RP-2H column on an Ettan LC System (GE Healthcare, Oslo, Norway) in line with a Radiomatic 610TR Flow System Analyzer by Perkin Elmer (PerkinElmer, Waltham, MA) for gamma detection.
# The plasma activity and biodistribution of ^125I-Cypep-1 was evaluated in a single experiment. An adult female Wistar rat of 260 g body weight was anaesthetized using 15 mg of Pentobarbital i.p.. Its body temperature was maintained at 37°C, using both a heating pad and an infrared lamp. Two PE-50 polyethylene catheters were placed into the femoral vein for the bolus injection of Cypep-1 and one into the femoral artery for blood sampling. 50 µl of the ^125I-Cypep-1 stock solution dissolved in 500 µl 0.9% NaCl were injected i.v., and a total of six arterial blood samples (100 µl per sample) were collected at 0.25, 1, 5, 10, 15 and 20 min following the ^125I-Cypep-1 administration. The animal was sacrificed under deep anaesthesia with an i.v. bolus injection of 0.5 ml saturated KCl. The tissue and plasma samples were harvested immediately and counted for ^125I-activity in a gamma-counter (LKB Wallac 1285, Turku, Finland). The peptide distribution volumes in the various body tissues were calculated as the ^125I-activity per gram tissue sample divided by the time-averaged plasma ^125I-activity during the 20 minutes clearance period (*= plasma equivalent space in ml/g tissue wet weight).
# [3] = 125I-Cypep-1, i.v., 20 min after administration, gamma counting, single animal
sequence,measurement,setting,value
YGRKKRRQRRRGKTLRVAKAIYKRYIE [Cypep-1],"surviving fraction, average of normal human cell lines",[1],56%
same,"tissue distribution, cerebellum",[2]; [3],0.00 ml/g tissue wet weight
same,"tissue distribution, cerebrum",[2]; [3],0.01 ml/g tissue wet weight
same,"tissue distribution, colon",[2]; [3],0.14 ml/g tissue wet weight
same,"tissue distribution, eye",[2]; [3],0.02 ml/g tissue wet weight
same,"tissue distribution, jejunum",[2]; [3],0.17 ml/g tissue wet weight
same,"tissue distribution, kidneys (per kidney)",[2]; [3],1.685 ml/g tissue wet weight
same,"tissue distribution, liver",[2]; [3],11.74 ml/g tissue wet weight
same,"tissue distribution, lungs",[2]; [3],0.38 ml/g tissue wet weight
same,"tissue distribution, muscle tissue",[2]; [3],0.02 ml/g tissue wet weight
same,"tissue distribution, spleen",[2]; [3],4.89 ml/g tissue wet weight
same,"tissue distribution, stomach",[2]; [3],0.04 ml/g tissue wet weight
same,"tissue distribution, thyroid gland",[2]; [3],0.13 ml/g tissue wet weight
same,passage of the blood-brain-barrier,"[2]; concluded from very low concentrations in organs of the central nervous system, i.v.",did not pass the blood-brain-barrier
